Test results published in patent US20090029995A1, “HETERO BIARYL DERIVATIVES AS MATRIX METALLOPROTEINASE INHIBITORS” (WARNER-LAMBERT COMPANY, priority 2002, published 2009).

Columns and labels:
[1] = target: T1, MMP-1 full-length (Homo sapiens, UniProt P03956); test: MMP-1 full-length inhibition (thiopeptolide substrate hydrolysis); type: biochemical; settings: read-out: MMP-1FL IC50
T1 sequence (P03956 100-469): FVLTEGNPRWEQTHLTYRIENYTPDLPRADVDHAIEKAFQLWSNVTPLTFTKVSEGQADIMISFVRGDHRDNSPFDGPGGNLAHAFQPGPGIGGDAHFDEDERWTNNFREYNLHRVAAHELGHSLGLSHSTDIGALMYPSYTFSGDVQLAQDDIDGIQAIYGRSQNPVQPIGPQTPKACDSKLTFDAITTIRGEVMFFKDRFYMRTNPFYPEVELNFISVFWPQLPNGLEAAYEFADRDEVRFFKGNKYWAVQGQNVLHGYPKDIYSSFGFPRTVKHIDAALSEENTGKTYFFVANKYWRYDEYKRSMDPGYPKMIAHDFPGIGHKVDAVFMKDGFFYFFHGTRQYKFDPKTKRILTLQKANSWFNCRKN
Text: (§1) Certain compounds of Formula I have been assayed with MMP-1 full-length, MMP-3 catalytic domain, MMP-7 full-length, MMP-8 full-length, MMP-9 full-length, MMP-12 catalytic domain, MMP-14 catalytic domain, and MMP-17 catalytic domain.
(§2) The assays measure the amount by which a test compound reduces the hydrolysis of a thiopeptolide substrate catalyzed by a matrix metalloproteinase enzyme. Such assays are described in detail by Ye et al., in Biochemistry, 1992; 31(45): 11231-11235, which is incorporated herein by reference. One such assay is described below in Biological Method 1.
(§3) Thiopeptolide substrates show virtually no decomposition or hydrolysis at or below neutral pH in the absence of a matrix metalloproteinase enzyme. A typical thiopeptolide substrate commonly utilized for assays is Ac-Pro-Leu-Gly-thioester-Leu-Leu-Gly-OEt. A 100 μL assay mixture will contain 50 mM of N-2-hydroxyethylpiperazine-N′-2-ethanesulfonic acid buffer (“HEPES,” pH 7.0), 10 mM CaCl2, 100 μM thiopeptolide substrate, and 1 mM 5,5′-dithio-bis-(2-nitro-benzoic acid) (DTNB). The thiopeptolide substrate concentration may be varied, for example from 10 to 800 μM to obtain Km and Kcat values. The change in absorbance at 405 nm is monitored on a Thermo Max microplate reader (molecular Devices, Menlo Park, Calif.) at room temperature (22° C.). The calculation of the amount of hydrolysis of the thiopeptolide substrate is based on E412=13600 M^−1 cm^−1 for the DTNB-derived product 3-carboxy-4-nitrothiophenoxide. […]
(§4) Some representative compounds of Formula I have been evaluated for their ability to inhibit MMP-13. Inhibitor activity versus other MMPs with the compounds may be determined using, for example, MMP-1FL, which refers to full length interstitial collagenase; MMP-2FL, which refers to full length Gelatinase A; MMP-3CD, which refers to the catalytic domain of stromelysin; MMP-7FL, which refers to full length matrilysin; MMP-9FL, which refers to full length Gelatinase B; MMP-13CD, which refers to the catalytic domain of collagenase 3; and MMP-14CD, which refers to the catalytic domain of MMP-14. […]

[2] = target: T2, MMP-7 full-length (Homo sapiens, UniProt P09237); test: MMP-7 full-length inhibition (thiopeptolide substrate hydrolysis); type: biochemical
T2 sequence (P09237 95-267): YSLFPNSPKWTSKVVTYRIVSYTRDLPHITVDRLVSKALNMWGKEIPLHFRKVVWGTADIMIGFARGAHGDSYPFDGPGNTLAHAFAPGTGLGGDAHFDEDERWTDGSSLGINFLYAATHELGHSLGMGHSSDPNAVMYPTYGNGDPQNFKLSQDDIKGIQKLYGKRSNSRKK
Text: as §1, §2, §3, §4

[3] = target: T3, MMP-8 full-length (Homo sapiens, UniProt P22894); test: MMP-8 full-length inhibition (thiopeptolide substrate hydrolysis); type: biochemical; settings: read-out: MMP-8FL IC50
T3 construct: MMP-7 full-length, MMP-8 full-length, MMP-9 full-length
T3 sequence (P22894 101-467): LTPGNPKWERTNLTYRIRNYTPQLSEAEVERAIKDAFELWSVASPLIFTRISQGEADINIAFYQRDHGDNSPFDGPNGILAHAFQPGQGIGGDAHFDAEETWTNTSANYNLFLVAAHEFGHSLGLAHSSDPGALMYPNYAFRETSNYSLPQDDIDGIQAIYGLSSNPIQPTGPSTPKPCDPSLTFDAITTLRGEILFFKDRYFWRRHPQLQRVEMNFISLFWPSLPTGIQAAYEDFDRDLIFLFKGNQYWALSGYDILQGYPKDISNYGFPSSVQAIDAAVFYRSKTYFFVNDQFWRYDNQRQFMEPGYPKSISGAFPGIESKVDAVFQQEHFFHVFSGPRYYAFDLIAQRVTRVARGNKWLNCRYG
Text: as §1, §2
(§5) Thiopeptolide substrates show virtually no decomposition or hydrolysis at or below neutral pH in the absence of a matrix metalloproteinase enzyme. A typical thiopeptolide substrate commonly utilized for assays is Ac-Pro-Leu-Gly-thioester-Leu-Leu-Gly-OEt. A 100 μL assay mixture will contain 50 mM of N-2-hydroxyethylpiperazine-N′-2-ethanesulfonic acid buffer (“HEPES,” pH 7.0), 10 mM CaCl2, 100 μM thiopeptolide substrate, and 1 mM 5,5′-dithio-bis-(2-nitro-benzoic acid) (DTNB). The thiopeptolide substrate concentration may be varied, for example from 10 to 800 μM to obtain Km and Kcat values. The change in absorbance at 405 nm is monitored on a Thermo Max microplate reader (molecular Devices, Menlo Park, Calif.) at room temperature (22° C.). The calculation of the amount of hydrolysis of the thiopeptolide substrate is based on E412=13600 M^−1 cm^−1 for the DTNB-derived product 3-carboxy-4-nitrothiophenoxide. Assays are carried out with and without matrix metalloproteinase inhibitor compounds, and the amount of hydrolysis is compared for a determination of inhibitory activity of the test compounds.
(§6) Test compounds were evaluated at various concentrations in order to determine their respective IC50 values, the micromolar concentration of compound required to cause a 50% inhibition of catalytic activity of the respective enzyme.

[4] = target: MMP-3 catalytic domain (Homo sapiens, UniProt P08254); test: MMP-3 catalytic domain inhibition (thiopeptolide substrate hydrolysis, MES buffer pH 6.0); type: biochemical; settings: read-out: MMP-3CD IC50
Sequence of MMP-3 catalytic domain (P08254 100-272 limits assumed): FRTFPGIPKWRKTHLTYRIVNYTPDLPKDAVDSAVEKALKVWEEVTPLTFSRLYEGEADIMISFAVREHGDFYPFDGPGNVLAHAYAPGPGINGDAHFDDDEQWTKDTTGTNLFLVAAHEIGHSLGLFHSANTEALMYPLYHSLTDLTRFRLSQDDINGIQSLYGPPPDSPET
Text: as §1, §2, §5, §6
It should be appreciated that the assay buffer used with MMP-3CD was 50 mM N-morpholinoethane sulfonate (“MES”) at pH 6.0 rather than the HEPES buffer at pH 7.0 described above. […]
as §4

[5] = target: T4, MMP-17 catalytic domain (Homo sapiens, UniProt Q9ULZ9); test: MMP-17 catalytic domain inhibition (thiopeptolide substrate hydrolysis); type: biochemical; settings: read-out: MMP-17CD IC50
T4 construct: MMP-12 catalytic domain, MMP-14 catalytic domain, and MMP-17 catalytic domain
T4 sequence (Q9ULZ9 126-295 limits assumed): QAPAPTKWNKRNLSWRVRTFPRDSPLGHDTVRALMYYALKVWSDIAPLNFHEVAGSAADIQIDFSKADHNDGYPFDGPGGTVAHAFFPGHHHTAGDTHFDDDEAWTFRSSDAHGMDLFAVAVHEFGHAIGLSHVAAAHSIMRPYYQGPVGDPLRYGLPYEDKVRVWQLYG
Text: as §1, §2, §5, §6

[6] = target: MMP-9 full-length (Homo sapiens, UniProt P14780); test: MMP-9 full-length inhibition (thiopeptolide substrate hydrolysis); type: biochemical; settings: read-out: MMP-9FL IC50
Sequence of MMP-9 full-length (P14780 94-707): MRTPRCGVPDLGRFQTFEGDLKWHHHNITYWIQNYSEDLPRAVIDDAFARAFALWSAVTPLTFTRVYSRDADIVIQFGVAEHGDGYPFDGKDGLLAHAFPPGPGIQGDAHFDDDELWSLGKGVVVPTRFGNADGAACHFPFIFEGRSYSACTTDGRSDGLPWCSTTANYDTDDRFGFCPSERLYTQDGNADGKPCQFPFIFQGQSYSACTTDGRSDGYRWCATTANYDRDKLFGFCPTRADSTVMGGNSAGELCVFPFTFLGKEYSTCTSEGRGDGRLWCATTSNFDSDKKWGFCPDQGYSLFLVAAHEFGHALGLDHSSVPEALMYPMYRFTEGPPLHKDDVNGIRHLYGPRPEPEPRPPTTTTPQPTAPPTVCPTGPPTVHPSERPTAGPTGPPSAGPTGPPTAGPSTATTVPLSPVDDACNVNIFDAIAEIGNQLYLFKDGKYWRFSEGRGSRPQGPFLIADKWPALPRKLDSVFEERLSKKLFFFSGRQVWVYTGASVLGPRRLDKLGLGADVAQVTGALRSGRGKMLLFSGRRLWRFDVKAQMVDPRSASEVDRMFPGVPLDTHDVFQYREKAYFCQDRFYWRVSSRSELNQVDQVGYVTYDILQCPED
Text: as §1, §2, §5, §6
(§7) The test described above for the inhibition of MMP-13 may also be adapted and used to determine the ability of the compounds of Formula I to inhibit the matrix metalloproteases MMP-1, MMP-2, MMP-3, MMP-7, MMP-9, MMP-12 and MMP-14.
as §4

[7] = target: T5, MMP-13 catalytic domain (Homo sapiens, UniProt P45452); test: MMP-13 catalytic domain inhibition (thiopeptolide substrate hydrolysis); type: biochemical; settings: read-out: MMP-13CD IC50
T5 construct: use the catalytic domain of the MMP-13 enzyme, namely matrix metalloproteinase-13 catalytic domain (“MMP-13CD”)
Text: The assays measure the amount by which a test compound reduces the hydrolysis of a thiopeptolide substrate catalyzed by a matrix metalloproteinase enzyme. […] One such assay is described below in Biological Method 1.
Some of the particular methods described below use the catalytic domain of the MMP-13 enzyme, namely matrix metalloproteinase-13 catalytic domain (“MMP-13CD”), rather than the corresponding full-length enzyme, MMP-13.
Thiopeptolide substrates show virtually no decomposition or hydrolysis at or below neutral pH in the absence of a matrix metalloproteinase enzyme. A typical thiopeptolide substrate commonly utilized for assays is Ac-Pro-Leu-Gly-thioester-Leu-Leu-Gly-OEt. […] Assays are carried out with and without matrix metalloproteinase inhibitor compounds, and the amount of hydrolysis is compared for a determination of inhibitory activity of the test compounds.

[8] = target: MMP-14 catalytic domain (Homo sapiens, UniProt P50281); test: MMP-14 catalytic domain inhibition (thiopeptolide substrate hydrolysis); type: biochemical; settings: read-out: MMP-14CD IC50
Text: as §1, §2, §5, §6, §7, §4

[9] = target: T6, MMP-12 catalytic domain (Homo sapiens, UniProt P39900); test: MMP-12 catalytic domain inhibition (thiopeptolide substrate hydrolysis); type: biochemical; settings: read-out: MMP-12CD IC50
T6 construct: MMP-12 catalytic domain, MMP-14 catalytic domain, and MMP-17 catalytic domain
T6 sequence (P39900 106-263 limits assumed): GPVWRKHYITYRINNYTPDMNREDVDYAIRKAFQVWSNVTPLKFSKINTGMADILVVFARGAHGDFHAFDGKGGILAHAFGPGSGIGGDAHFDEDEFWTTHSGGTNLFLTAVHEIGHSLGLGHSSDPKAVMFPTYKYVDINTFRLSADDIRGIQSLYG
Text: as §1, §2
Thiopeptolide substrates show virtually no decomposition or hydrolysis at or below neutral pH in the absence of a matrix metalloproteinase enzyme. A typical thiopeptolide substrate commonly utilized for assays is Ac-Pro-Leu-Gly-thioester-Leu-Leu-Gly-OEt. A 100 μL assay mixture will contain 50 mM of N-2-hydroxyethylpiperazine-N′-2-ethanesulfonic acid buffer (“HEPES,” pH 7.0), 10 mM CaCl2, 100 μM thiopeptolide substrate, and 1 mM 5,5′-dithio-bis-(2-nitro-benzoic acid) (DTNB). The thiopeptolide substrate concentration may be varied, for example from 10 to 800 μM to obtain Km and Kcat values. The change in absorbance at 405 nm is monitored on a Thermo Max microplate reader (molecular Devices, Menlo Park, Calif.) at room temperature (22° C.). […]

IC50 [1] | IC50 [2] | IC50 [3] | IC50 [4] | IC50 [5] | IC50 [6] | IC50 [7] | IC50 [8] | melting point | IC50 [9] | SMILES
> 100 µM | > 30 µM | > 100 µM | 4.3 µM | > 100 µM | > 30 µM | 0.0027 µM | > 30 µM |  |  | COc1ccc(CC#Cc2cncc(-c3nnn(Cc4ccc(C(=O)O)cc4)n3)c2)cc1 [Example H4, 4-(5-{5-[3-(4-Methoxy-phenyl)-prop-1-ynyl]-pyridin-3-yl}-tetrazol-2-ylmethyl)-benzoic acid]
> 30 µM | 7.9 µM | > 100 µM | 100 µM | > 100 µM | > 30 µM | 0.0011 µM | 27 µM |  |  | O=C(O)c1ccc(Cc2nnc(-c3cccc(C#CCc4ccc(F)cc4)c3)s2)cc1 [Example C2, 4-(5-{3-[3-(4-Fluoro-phenyl)-prop-1-ynyl]-phenyl}-[1,3,4]thiadiazol-2-ylmethyl)-benzoic acid]
> 100 µM | > 100 µM | > 100 µM | 100 µM |  | > 100 µM | 0.0017 µM | > 100 µM | 193 to 194 °C |  | O=C(O)c1ccc(Cn2nnc(-c3ccnc(C(=O)NCc4ccc(F)cc4)c3)n2)cc1 [Example F12, 4-{5-[2-(4-Fluoro-benzylcarbamoyl)-pyridin-4-yl]-tetrazol-2-ylmethyl}-benzoic acid]
 |  | > 100 µM | 4.7 µM | 30 µM | > 100 µM | 0.0015 µM | > 30 µM | 210 to 212 °C | 18 µM | O=C(O)c1ccc(Cn2nnc(-c3cccc(C#CCc4ccc(F)cc4)c3)n2)cc1 [Example C4, 4-(5-{3-[3-(4-Fluoro-phenyl)-prop-1-ynyl]-phenyl}-tetrazol-2-ylmethyl)-benzoic acid]
